Measured values reported in patent US20240390438A1, “PROBIOTICS SEPARATED FROM RABBIT FECES AND FOOD CONTAINING PROBIOTICS” (AGENT Innovation Co., Ltd., priority 2021, published 2024).
Values after ≈ are worked out from the molar mass of the structure shown. Like-named read-outs stand apart in the source and are kept apart here.

Assays:
L. plantarum 299 = conditions: from Klarin et al., 2019; cited from earlier work
L. pl 24-5D = conditions: from Georgieva et al., 2015; cited from earlier work
L. pl 24-2L = conditions: from Georgieva et al., 2015; cited from earlier work
L. plantarum 299v = conditions: from Klarin et al., 2019; cited from earlier work
Colony LP2 = assay: Antibiotic susceptibility test; type: cell-based, Lactiplantibacillus Plantarum; conditions: for MIC: Lactiplantibacillus plantarum, LP2, 24 h, read-out: Minimum inhibitory concentration of the antibiotic to LP2
Description: (§1) To test bacterial susceptibility to antibiotics, such as Aminoglycosides antibiotics, Sulfonamide antibiotics, Quinolone antibiotics, Ampicillin, Cefotaxime, Chloramphenicol, Erythromycin, Rifampicin and Tetracycline, the experimental protocol were as follow. Further, the Quinolone antibiotics comprise Ciprofloxacin, the Aminoglycosides antibiotics comprise Kanamycin and […], and the Sulfonamide antibiotics comprise Sulfamethoxazole. […] The initial absorbance at 600 nm (OD600) of each well was recorded. Then, the 96-well plates were placed at 37° C. and cultured for 24 hours. Next, the OD600 of each well was measured again to determine minimum inhibitory concentration.

Colony PTA22 = assay: Antibiotic susceptibility test; type: cell-based, Lactiplantibacillus Plantarum; conditions: for MIC: Lactiplantibacillus plantarum, PTA22, 24 h; for Minimum inhibitory concentration of the antibiotic to PTA22: 96-well, 37 C 24 h, OD600
Description: as §1

Colony LP19 = assay: Antibiotic susceptibility test; type: cell-based, Lactiplantibacillus Plantarum; conditions: for MIC: Lactiplantibacillus plantarum, LP19, 24 h; for Minimum inhibitory concentration of the antibiotic to LP19: 96-well, 37 C 24 h, OD600
Description: as §1

Colony LP5 = assay: Antibiotic susceptibility test; type: cell-based, Lactiplantibacillus Plantarum; conditions: for MIC: Lactiplantibacillus plantarum, LP5, 24 h; for Minimum inhibitory concentration of the antibiotic to LP5: 96-well, 37 C 24 h, OD600
Description: as §1

Colony LP1 = assay: Antibiotic susceptibility test; type: cell-based, Lactiplantibacillus Plantarum; conditions: for MIC: Lactiplantibacillus plantarum, LP1, 24 h; for Minimum inhibitory concentration of the antibiotic to LP1: 96-well, 37 C 24 h, OD600
Description: as §1

species L. plantarum = conditions: EFSA (2005); cited from earlier work
[1] = read-out: Minimum inhibitory concentration of the antibiotic to PTA22, 96-well, 37 C 24 h, OD600
[2] = read-out: Minimum inhibitory concentration of the antibiotic to LP19, 96-well, 37 C 24 h, OD600
[3] = read-out: Minimum inhibitory concentration of the antibiotic to LP5, 96-well, 37 C 24 h, OD600
[4] = read-out: Minimum inhibitory concentration of the antibiotic to LP1, 96-well, 37 C 24 h, OD600

For `CC[C@H]1OC(=O)[C@H](C)[C@@H](O[C@H]2C[C@@](C)(OC)[C@@H](O)[C@H](C)O2)[C@H](C)[C@@H](O[C@@H]2O[C@H](C)C[C@H](N(C)C)[C@H]2O)[C@](C)(O)C[C@@H](C)C(=O)[C@H](C)[C@@H](O)[C@]1(C)O` [Erythromycin], the “Minimum inhibitory concentration of the antibiotic to L. plantarum 299” value (L. plantarum 299) is given as 0.75 µg/mL, the “Minimum inhibitory concentration of the antibiotic to L. pl 24-5D” value (L. pl 24-5D) is given as 0.75 µg/mL and the “Minimum inhibitory concentration of the antibiotic to L. pl 24-2L” value (L. pl 24-2L) is given as 0.75 µg/mL. The “Minimum inhibitory concentration of the antibiotic to L. plantarum 299v” value (L. plantarum 299v) was 1 µg/mL, the MIC (Colony LP2; 96-well, 37 C 24 h, OD600) was 2 µg/mL (≈ 2.73 µM) and the MIC (Colony PTA22; [1]) was 4 µg/mL (≈ 5.45 µM). For the same compound, the MIC (Colony LP19; [2]) was 2 µg/mL (≈ 2.73 µM), the MIC (Colony LP5; [3]) was 2 µg/mL (≈ 2.73 µM) and the MIC (Colony LP1; [4]) was 1 µg/mL (≈ 1.36 µM). For the same compound, the “EFSA, MIC breakpoints species L. plantarum” value (species L. plantarum) was 4 µg/mL.
Work on `CO[C@H]1/C=C/O[C@@]2(C)Oc3c(C)c(O)c4c(O)c(c(/C=N/N5CCN(C)CC5)c(O)c4c3C2=O)NC(=O)/C(C)=C\C=C\[C@H](C)[C@H](O)[C@@H](C)[C@@H](O)[C@@H](C)[C@H](OC(C)=O)[C@@H]1C` [Rifampicin] yielded an MIC (Colony LP2; 96-well, 37 C 24 h, OD600) of 1 µg/mL (≈ 1.22 µM), an MIC (Colony PTA22; [1]) of 2 µg/mL (≈ 2.43 µM) and an MIC (Colony LP19; [2]) of 2 µg/mL (≈ 2.43 µM). It also gave an MIC (Colony LP5; [3]) of 1 µg/mL (≈ 1.22 µM) and an MIC (Colony LP1; [4]) of 1 µg/mL (≈ 1.22 µM).
For `Cc1cc(NS(=O)(=O)c2ccc(N)cc2)no1` [Sulfamethoxazole], the “Minimum inhibitory concentration of the antibiotic to LP2” value (Colony LP2; 96-well, 37 C 24 h, OD600) was >256 µg/mL, the MIC (Colony LP2; 96-well, 37 C 24 h, OD600) was > 256 µg/mL and the “Minimum inhibitory concentration of the antibiotic to PTA22” value (Colony PTA22) was >256 µg/mL. For the same compound, the MIC (Colony PTA22; [1]) was > 256 µg/mL, the “Minimum inhibitory concentration of the antibiotic to LP19” value (Colony LP19) was >256 µg/mL and the MIC (Colony LP19; [2]) was > 256 µg/mL. For the same compound, the “Minimum inhibitory concentration of the antibiotic to LP5” value (Colony LP5) was >256 µg/mL, the MIC (Colony LP5; [3]) was > 256 µg/mL and the “Minimum inhibitory concentration of the antibiotic to LP1” value (Colony LP1) was >256 µg/mL. For the same compound, the MIC (Colony LP1; [4]) was > 256 µg/mL.
`CN(C)[C@@H]1C(O)=C(C(N)=O)C(=O)[C@@]2(O)C(O)=C3C(=O)c4c(O)cccc4[C@@](C)(O)[C@H]3C[C@@H]12` [Tetracycline] gave an MIC (Colony LP2; 96-well, 37 C 24 h, OD600) of 32 µg/mL (≈ 72 µM), an MIC (Colony PTA22; [1]) of 64 µg/mL (≈ 144 µM) and an MIC (Colony LP19; [2]) of 32 µg/mL (≈ 72 µM). It also gave an MIC (Colony LP5; [3]) of 32 µg/mL (≈ 72 µM) and an MIC (Colony LP1; [4]) of 32 µg/mL (≈ 72 µM).
In the case of `CN[C@H](CC(C)C)C(=O)N[C@H]1C(=O)N[C@@H](CC(N)=O)C(=O)N[C@H]2C(=O)N[C@H]3C(=O)N[C@H](C(=O)N[C@H](C(=O)O)c4cc(O)cc(O)c4-c4cc3ccc4O)[C@H](O)c3ccc(c(Cl)c3)Oc3cc2cc(c3O[C@@H]2O[C@H](CO)[C@@H](O)[C@H](O)[C@H]2O[C@H]2C[C@](C)(N)[C@H](O)[C@H](C)O2)Oc2ccc(cc2Cl)[C@H]1O` [Vancomycin], the “Minimum inhibitory concentration of the antibiotic to L. plantarum 299” value (L. plantarum 299) is given as >256 µg/mL, the “Minimum inhibitory concentration of the antibiotic to L. pl 24-5D” value (L. pl 24-5D) is given as >256 µg/mL and the “Minimum inhibitory concentration of the antibiotic to L. pl 24-2L” value (L. pl 24-2L) is given as >256 µg/mL. For the same compound, the “Minimum inhibitory concentration of the antibiotic to L. plantarum 299v” value (L. plantarum 299v) was >256 µg/mL, the “Minimum inhibitory concentration of the antibiotic to LP2” value (Colony LP2; 96-well, 37 C 24 h, OD600) was >256 µg/mL and the MIC (Colony LP2) was > 256 µg/mL. The “Minimum inhibitory concentration of the antibiotic to PTA22” value (Colony PTA22) was >256 µg/mL, the MIC (Colony PTA22; read-out: Minimum inhibitory concentration of the antibiotic to PTA22) was > 256 µg/mL and the “Minimum inhibitory concentration of the antibiotic to LP19” value (Colony LP19) was >256 µg/mL. For the same compound, the MIC (Colony LP19; read-out: Minimum inhibitory concentration of the antibiotic to LP19) was > 256 µg/mL, the “Minimum inhibitory concentration of the antibiotic to LP5” value (Colony LP5) was >256 µg/mL and the MIC (Colony LP5; read-out: Minimum inhibitory concentration of the antibiotic to LP5) was > 256 µg/mL. For the same compound, the “Minimum inhibitory concentration of the antibiotic to LP1” value (Colony LP1) was >256 µg/mL and the MIC (Colony LP1; read-out: Minimum inhibitory concentration of the antibiotic to LP1) was > 256 µg/mL.
